The source of these data is patent publication US9006208B2, “Agent for treatment of dry eye characterized by combining P2Y2 receptor agonist and hyaluronic acid or salt thereof, method for treating dry eye, and use of the P2Y2 receptor agonist and hyaluronic acid or salt thereof” (Santen Pharmaceutical Co., Ltd., priority 2010, dated 2015).

One assay concerns rabbits. The following applies: Current Eye Research 21(4), 782-787 (2000); cited from earlier work.
In assay [1] the test system is normal male white rabbits. Description: Pharmacological Test 1: change in tear meniscus area after ocular instillation (3% diquafosol sodium, 0.1% sodium hyaluronate). Format: in vivo, rabbit. The following applies: 50 μL instilled once, FIG. 1. On the procedure: The change in the tear fluid volume can be evaluated by measuring the value of a tear meniscus area stained with a fluorescein solution (Exp. Eye. Res., 78(3), 399-407 (2004)). Then, the time course of a change in the tear meniscus area value after the sequential administration of diquafosol sodium, which is a P2Y2 receptor agonist, and sodium hyaluronate to eyes was evaluated in accordance with the method of Murakami et al. (Ophthalmic Res., 34, 371-374 (2002)), using normal male white rabbits. […]
A 0.1% fluorescein solution (3 μL) was administered onto a tear meniscus of the lower eyelid of each of normal male white rabbits (40 eyes of 20 rabbits in total), and a photograph of the tear meniscus that was stained with fluorescein accumulated in the eyelid was taken. The area of the stained tear meniscus part in the photograph was calculated using image analysis software, and the resultant value was employed as a baseline. […]
The change in the tear meniscus area before and after the administration of each of the drugs was calculated as “Δ tear meniscus area value”. […]

Assay [2] deals with rat model from which an exorbital lacrimal gland is excised, additionally applied airflow (corneal epithelial disorder). Description: Pharmacological Test 2: corneal fluorescein staining score in rat dry eye model (exorbital lacrimal gland excised plus airflow). The following applies: 5 μL into both eyes 6 times per day for 6 weeks; 3% diquafosol sodium, 0.1% sodium hyaluronate; compared with non-administered group; FIG. 2. Format: in vivo. The source says: A rat model from which an exorbital lacrimal gland is excised therefrom has been generally used as a model for evaluating therapeutic effects on corneal epithelial disorders induced by dry eye, and has also been used as a model for evaluating therapeutic effects of P2Y2 receptor agonists (Invest. Ophthalmol. Vis. Sci., 42(1), 96-100 (2001)). Using a dry eye model which is additionally applied airflow to the rat model, it was examined whether or not an improvement effect on corneal epithelial disorders could be achieved by the administration of a P2Y2 receptor agonist at a therapeutically effective concentration and hyaluronic acid or a salt thereof at a therapeutically effective concentration in combination. […]
Six weeks after the initiation of the instillation into eyes, an affected part of the cornea was stained with fluorescein, and the occurrence of the corneal epithelial disorder was determined in accordance with the method by Murakami et al. (Journal of the Eye (Atarashii Ganka), 21(1), 87-90 (2004)). That is, with respect to each of an upper part, an intermediate part and a lower part of the cornea, scores of the degree of staining with fluorescein were determined in accordance with the criteria mentioned below, and the average value of the sum total of the scores was calculated. […]

Assay [3] relates to normal male white rabbits. In words: Pharmacological Test 3: change in tear meniscus area (3% diquafosol sodium, 0.002% sodium hyaluronate). The class given is in vivo, rabbit. The following applies: 35 minutes after administration, 50 μL, combination: hyaluronate 5 min after diquafosol. On the procedure:
For the purpose of examining as to whether or not an increase in tear meniscus area values is observed when a P2Y2 receptor agonist at a therapeutically effective concentration is combined with hyaluronic acid or a salt thereof at a concentration which is employed as an additive, the time course of a change in the tear meniscus area value after the sequential ocular instillation of the 3% diquafosol sodium and the 0.002% sodium hyaluronate was evaluated in the same manner as in Pharmacological test 1.
A 3% diquafosol sodium ophthalmic solution was prepared in the same manner as in the above-mentioned Pharmacological test 1. A 0.002% sodium hyaluronate ophthalmic solution was prepared by diluting “Hyalein® ophthalmic solution 0.3%” manufactured and sold by Santen Pharmaceutical Co., Ltd. with physiological saline.
With respect to normal male white rabbits (24 eyes of 12 rabbits in total), a photograph of a tear meniscus before the administration of a drug was taken in the same manner as in pharmacological test 1. […]
(§1) The change in the tear meniscus area before and after the administration of each of the drugs was calculated as a “Δ tear meniscus area value”.

The test system of assay [4] is normal male white rabbits. In words: Pharmacological Test 4: change in tear meniscus area (3% diquafosol sodium, 0.3% sodium hyaluronate). The class given is in vivo, rabbit. As to conditions: after 35 minutes, 50 μL, combination: hyaluronate 5 min after diquafosol. The procedure: The time course of a change in tear meniscus area values after the sequential instillation of 3% diquafosol sodium and 0.3% sodium hyaluronate into eyes was evaluated in the same manner as in Pharmacological test 1.
A 3% diquafosol sodium ophthalmic solution was prepared in the same manner as in the above-mentioned Pharmacological test 1. “Hyalein® ophthalmic solution 0.3%” manufactured and sold by Santen Pharmaceutical Co., Ltd. was used as a 0.3% sodium hyaluronate ophthalmic solution.
With respect to each of normal male white rabbits (18 eyes of 9 rabbits in total), a photograph of a tear meniscus was taken before the administration of each of the drug in the same manner as in Pharmacological test 1. […]
as §1

For assay [5] the following is noted: clinical tests; Cornea 23(8), 784-792 (2004); cited from earlier work.

With `Nc1ncnc2c1ncn2[C@@H]1O[C@H](COP(=O)(O)OP(=O)(O)OP(=O)(O)O)[C@@H](O)[C@H]1O` [ATP, Adenosine 5′-triphosphate], the secretion of tear entry in the assay with rabbits is given as “can promote the secretion of tear in rabbits”.
For `O=c1ccn([C@@H]2O[C@H](COP(=O)(O)OP(=O)(O)OP(=O)(O)OP(=O)(O)OC[C@H]3O[C@@H](n4ccc(=O)[nH]c4=O)C(O)[C@H]3O)[C@H](O)C2O)c(=O)[nH]1` (stereo partly drawn) [Diquafosol, P^1,P^4-bis(5′-uridyl)tetraphosphate], the “Δ tear meniscus area value” in assay [1] (10 minutes after administration (of the first agent)) is recorded as “increase in the tear meniscus area value was observed”; in assay [1] (35 minutes after administration (of the first agent)), “increase in the tear meniscus area value was observed”; in assay [3] it was 1 .127 mm^2; in assay [4], 1.434 mm^2. The “fluorescein staining scores of the cornea” value in assay [2] is reported as “the tendency of improvement in fluorescein staining scores was observed, the improvement that can be considered as being statistically significant was not observed”. Moreover, in assay [5], the keratoconjunctival epithelial disorders entry is listed as “ameliorated keratoconjunctival epithelial disorders”. In assay [5], the secretion of tear entry is listed as “promoted the secretion of tear”.
In the case of `O=c1ccn([C@@H]2O[C@H](COP(=O)(O)OP(=O)(O)OP(=O)(O)O)[C@@H](O)[C@H]2O)c(=O)[nH]1` [UTP, Uridine 5′-triphosphate], the secretion of tear result in the assay on rabbits is “can promote the secretion of tear in rabbits”.
